Assays:
HeLa = test: cells; conditions: Homo sapiens, 48 h
Description: Antitumor activity against human HeLa cells assessed as inhibition of cell viability incubated for 48 hrs by MTT assay

HEp-2 = test: cells; conditions: Homo sapiens, HEp-2, 48 h
Description: Antitumor activity against human HEp-2 cells assessed as inhibition of cell viability incubated for 48 hrs by MTT assay

HCT-116 = test: cells; conditions: Homo sapiens, HCT-116, 48 h
Description: Antitumor activity against human HCT-116 cells assessed as inhibition of cell viability incubated for 48 hrs by MTT assay

MCF7 = test: cells; conditions: Homo sapiens, MCF7, 48 h
Description: Antitumor activity against human MCF7 cells assessed as inhibition of cell viability incubated for 48 hrs by MTT assay

HepG2 = test: cells; conditions: Homo sapiens, HepG2, 48 h
Description: Antitumor activity against human HepG2 cells assessed as inhibition of cell viability incubated for 48 hrs by MTT assay

[1] = Cytotoxicity against human WISH cells incubated for 48 hrs by MTT assay; format: toxicity, cell-based
WI-38 = test: Cytotoxicity against human WI-38 cells up to 50 uM incubated for 48 hrs by MTT assay; format: toxicity, cell-based; conditions: wi-38, 48 h
[2] = Cytotoxicity against human WI-38 cells incubated for 48 hrs by MTT assay; format: toxicity, cell-based
WISH = test: Cytotoxicity against human WISH cells at up to 50 uM incubated for 48 hrs by MTT assay; format: toxicity, cell-based

IC50 (HeLa) [µM]	IC50 (HEp-2) [µM]	IC50 (HCT-116) [µM]	IC50 (MCF7) [µM]	IC50 (HepG2) [µM]	Compound	IC50 at 48 h [1] [µM]	Activity (WI-38)	IC50 at 48 h [2] [µM]	Activity (WISH)
> 100	> 100	81.6	84.1	96.2	Cc1ccc(C(=O)CNNCC(=O)Nc2nc(Nc3ccccc3)sc2C#N)cc1				
72.1	87.9	60.4	59.1	76	N#Cc1sc(Nc2ccccc2)nc1NC(=O)CN1CCN(c2cccc(Cl)c2)CC1				
21.4	68.4	41.8	9.1	28.3	N#Cc1sc(Nc2ccccc2)nc1NC(=O)CNNCc1ccccc1	47.4	Non-toxic	75.6	Non-toxic
22.8	28.8	14.2	16.7	30.5	N#Cc1sc(Nc2ccccc2)nc1NC(=O)CN1CCCCC1	21.2	Non-toxic	23.7	Non-toxic
86.8	> 100	91.9	64.8	89.9	N#Cc1sc(Nc2ccccc2)nc1NC(=O)CNNC(=O)c1ccc(Cl)cc1				
33.3	43.6	29.3	26.2	35.8	N#Cc1sc(Nc2ccccc2)nc1NC(=O)CNNCc1ccc([N+](=O)[O-])cc1				
					COc1cccc2c1C(=O)c1c(O)c3c(c(O)c1C2=O)C[C@@](O)(C(=O)CO)C[C@@H]3O[C@H]1C[C@H](N)[C@H](O)[C@H](C)O1 [DOXORUBICIN]	3.34	Non-toxic		Non-toxic
47	64.7	36.5	39	52.3	N#Cc1sc(Nc2ccccc2)nc1NC(=O)CNNCC(=O)c1ccccc1				
36.7	45.8	31.1	33.5	38.5	N#Cc1sc(Nc2ccccc2)nc1NC(=O)CN1CCOCC1				
94.3	> 100	86.5	72.8	91.5	N#Cc1sc(Nc2ccccc2)nc1N1CSCC1=O				
16.4	39.7	25.8	14.8	20.1	N#Cc1sc(Nc2ccccc2)nc1Nc1cnc(N)o1	24	Non-toxic	27.5	Non-toxic

— ChEMBL document CHEMBL6177928, “Probing structural requirements for thiazole-based mimetics of sunitinib as potent VEGFR-2 inhibitors” (RSC Med Chem, 2025)
